Experimental data as given in PubChem BioAssay (NCI).
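How tested: cells in 96-well plates exposed to compound for 48 hours at five concentrations. TGI: concentration producing complete growth inhibition.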

Experiments:
Assay in all cases: growth of human tumour cells (NCI), 48 h
HCT-15 colon = system: HCT-15 colon
IGROV1 ovarian = system: IGROV1 ovarian
K-562 leukemia = system: K-562 leukemia
KM12 colon = system: KM12 colon
MCF7 breast = system: MCF7 breast
MDA-MB-435 = system: MDA-MB-435
NCI-H460 lung = system: NCI-H460 lung
NCI/ADR-RES ovarian = system: NCI/ADR-RES ovarian
OVCAR-8 ovarian = system: OVCAR-8 ovarian
PC-3 prostate = system: PC-3 prostate
SK-MEL-2 melanoma = system: SK-MEL-2 melanoma
SK-OV-3 ovarian = system: SK-OV-3 ovarian
SR leukemia = system: SR leukemia
T-47D breast = system: T-47D breast
UO-31 renal = system: UO-31 renal
MDA-N = system: MDA-N
MOLT-4 leukemia = system: MOLT-4 leukemia
SK-MEL-28 melanoma = system: SK-MEL-28 melanoma

| Compound | TGI (HCT-15 colon) | TGI (IGROV1 ovarian) | TGI (K-562 leukemia) | TGI (KM12 colon) | TGI (MCF7 breast) | TGI (MDA-MB-435) | TGI (NCI-H460 lung) | TGI (NCI/ADR-RES ovarian) | TGI (OVCAR-8 ovarian) | TGI (PC-3 prostate) | TGI (SK-MEL-2 melanoma) | TGI (SK-OV-3 ovarian) | TGI (SR leukemia) | TGI (T-47D breast) | TGI (UO-31 renal) | TGI (MDA-N) | TGI (MOLT-4 leukemia) | TGI (SK-MEL-28 melanoma) |
| --- | --- | --- | --- | --- | --- | --- | --- | --- | --- | --- | --- | --- | --- | --- | --- | --- | --- | --- |
| COc1cccc(Nc2nc(-c3cccs3)nc3ccc(Br)cc23)c1 | > 100 µM | > 100 µM | > 100 µM | > 100 µM | 63.8 µM | > 100 µM | > 100 µM | > 100 µM | > 100 µM | > 100 µM | > 100 µM | > 100 µM | > 100 µM | > 100 µM | > 100 µM |  |  |  |
| CC(C)(C)[Si](C)(C)OCC1OC(n2ccc(=O)[nH]c2=O)C(O[Si](C)(C)C(C)(C)C)[C@@]12O[C@H]2C(N)=O (some centres undefined) | 28.4 µM | 8.66 µM |  | 44.2 µM | 18.7 µM | 23.1 µM | 20.4 µM | 38.5 µM | 32.5 µM | 17.8 µM | 34.6 µM | 36.6 µM |  |  | 19.6 µM | 24.1 µM | > 100 µM | > 100 µM |
| Cc1nc(Nc2ccc(F)cc2)c2sc(=S)n(-c3ccc(F)cc3)c2n1 | 13.8 µM | 22.4 µM | > 100 µM | 28.2 µM | 18.7 µM | 22.7 µM | 28.8 µM | 37.3 µM | 35.9 µM | 35.6 µM | 28.6 µM | 40.2 µM | > 100 µM | 19.8 µM | 30.1 µM |  |  | 27.8 µM |
| O=C1CCCCC1=C(I)I |  | 30.4 µM | 95.8 µM | 28.8 µM |  | 46.8 µM | 44.1 µM |  | > 100 µM | 30.9 µM | 31.8 µM | 56.8 µM | > 100 µM | 28.7 µM | 30.5 µM | 31.3 µM | 58.3 µM | 31.8 µM |
| COc1cc2c(cc1OC)CC(=O)c1cc(OC)c(OC)cc1/C=C\2 | > 12.5 µM | > 12.5 µM | > 12.5 µM | > 12.5 µM | > 12.5 µM | > 12.5 µM | > 12.5 µM | > 12.5 µM | > 12.5 µM | > 12.5 µM | > 12.5 µM | > 12.5 µM |  |  | > 12.5 µM | 7.36 µM | > 12.5 µM | > 12.5 µM |
| CC(C)C1OC2(C)OC(=N)C1(C#N)C(C#N)(C#N)C2C (centres undefined) | 25.3 µM |  | > 100 µM | > 100 µM | 41.7 µM | > 100 µM | 33.8 µM | > 100 µM | 79.5 µM | > 100 µM | 67.7 µM | > 100 µM |  | 33.5 µM | > 100 µM | 29.8 µM | > 100 µM | > 100 µM |
| COc1ccc(-c2cc(-c3ccc(Nc4ccnc5cc(Cl)ccc45)cc3)nc(N)c2C#N)cc1 | > 100 µM | > 100 µM | > 100 µM | > 100 µM | > 100 µM | > 100 µM | > 100 µM | > 100 µM | > 100 µM | > 100 µM | > 100 µM | > 100 µM | > 100 µM | > 100 µM | 70.1 µM |  | > 100 µM | > 100 µM |
| C(=Nc1ccc(-c2cc(-c3ccccc3)nc3ccc4ccccc4c23)cc1)c1ccccc1 | > 100 µM | > 100 µM | > 100 µM | 68 µM | > 100 µM | 55.5 µM | > 100 µM | > 100 µM | > 100 µM | > 100 µM |  | > 100 µM | > 100 µM |  | 73.1 µM | > 100 µM | > 100 µM | > 100 µM |
| C=C(C(=O)O)C1CCC(CC/C=C(\C)CC/C=C(\C)CCC=C(C)C)CO1 (centres undefined) | 31.9 µM | 39.3 µM |  | 28.4 µM | 32.6 µM | 53.7 µM |  | 81.8 µM | 39.9 µM | 79.1 µM | 60.4 µM | > 100 µM |  | > 100 µM | 30 µM | 27.8 µM |  | 29.5 µM |
| CCN(CC)CCC1CCCCN1CC(=O)N1c2ccccc2NC(=O)c2ccccc21 (centres undefined) | > 100 µM | > 100 µM | > 100 µM | > 100 µM | > 100 µM | > 100 µM | > 100 µM |  | > 100 µM | > 100 µM | > 100 µM | > 100 µM | > 100 µM | > 100 µM | > 100 µM | > 100 µM | > 100 µM | > 100 µM |
| OCC1OC(Oc2cc(O)cc(/C=C/c3ccc(O)cc3)c2)C(O)C(O)C1O (centres undefined) | > 100 µM | > 100 µM | > 100 µM | > 100 µM | > 100 µM | > 100 µM | > 100 µM | > 100 µM | > 100 µM | > 100 µM | > 100 µM | > 100 µM | > 100 µM |  | > 100 µM | > 100 µM | > 100 µM | > 100 µM |
| C/C(=N\Nc1ccccc1Br)c1cccc(/C(C)=N/Nc2ccccc2Br)n1 | > 100 µM | > 100 µM | > 100 µM | > 100 µM | > 100 µM | > 100 µM | > 100 µM | > 100 µM | > 100 µM | > 100 µM | > 100 µM |  | > 100 µM |  | > 100 µM | > 100 µM | > 100 µM | > 100 µM |
| NC1=NNC2(C(=O)N1)c1ccccc1-c1ccccc12 | > 10 µM | > 10 µM | > 10 µM | > 10 µM | > 10 µM |  | > 10 µM | > 10 µM | > 10 µM | > 10 µM | > 10 µM | > 10 µM | > 10 µM | > 10 µM | > 10 µM | > 10 µM | > 10 µM | > 10 µM |
| NC1CC(N)c2c(Br)sc(Br)c21 (centres undefined) | > 100 µM | > 100 µM | > 100 µM | > 100 µM | > 100 µM | > 100 µM | > 100 µM | > 100 µM | > 100 µM |  | > 100 µM | > 100 µM | > 100 µM | > 100 µM | > 100 µM | > 100 µM | > 100 µM | > 100 µM |
